Test results taken from the supplement of paper PMC10307832.

Tests used:
Assay in all cases: relative viability (nuclei count vs DMSO), 5 days (fraction); higher = more cells survive
201T = tested on: 201T
Method in brief: (§1)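 A single step with final 0.05% Triton X-100, 1% formaldehyde and 1 ug/ml Hoechst fixed the cells and stained nuclei 5 days after treatment. Lung cancer cell lines in 1536-well plates had been treated by pin tool the day after seeding with one drug alone or a fixed anchor-drug dose plus five library-drug doses (not always all listed) in √10 steps, and nuclei were counted on 4× images. Relative viability is the ratio of nuclei in treated wells to nuclei in vehicle wells, taken as the median of duplicate plates.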

COR-L23 = tested on: COR-L23
Method in brief: as §1

ChaGo-K-1 = tested on: ChaGo-K-1
Method in brief: as §1

HARA = tested on: HARA
Method in brief: as §1

HCC-15 = tested on: HCC-15
Method in brief: as §1

HCC-366 = tested on: HCC-366
Method in brief: as §1

HCC-78 = tested on: HCC-78
Method in brief: as §1

LCLC-103H = tested on: LCLC-103H
Method in brief: as §1

LCLC-97TM1 = tested on: LCLC-97TM1
Method in brief: as §1

LOU-NH91 = tested on: LOU-NH91
Method in brief: as §1

NCI-H1355 = tested on: NCI-H1355
Method in brief: as §1

NCI-H1734 = tested on: NCI-H1734
Method in brief: as §1

NCI-H2009 = tested on: NCI-H2009
Method in brief: as §1

NCI-H2126 = tested on: NCI-H2126
Method in brief: as §1

NCI-H441 = tested on: NCI-H441
Method in brief: as §1

NCI-H460 = tested on: NCI-H460
Method in brief: as §1

NCI-H596 = tested on: NCI-H596
Method in brief: as §1

NCI-H647 = tested on: NCI-H647
Method in brief: as §1

NCI-H650 = tested on: NCI-H650
Method in brief: as §1

PC-14 = tested on: PC-14
Method in brief: as §1

SW 900 = tested on: SW 900
Method in brief: as §1

Q: Which results are given for `COCC1(CO)C(=O)C2CCN1CC2` (configuration not stated) [PRIMA-1MET] + Cc1cc(Nc2cc(N3CCN(C)CC3)nc(Sc3ccc(NC(=O)C4CC4)cc3)n2)n[nH]1 [Tozasertib] (partner 0.1 µM)?
A: relative viability (201T; first compound 0.2 µM): 1.12; relative viability (201T; first compound 0.6325 µM): 0.912; relative viability (201T; first compound 2 µM): 0.899; relative viability (201T; first compound 6.325 µM): 0.908; relative viability (201T; first compound 20 µM): 0.905; relative viability (COR-L23; first compound 0.2 µM): 0.223; relative viability (COR-L23; first compound 0.6325 µM): 0.285; relative viability (COR-L23; first compound 2 µM): 0.212; relative viability (COR-L23; first compound 6.325 µM): 0.195; relative viability (COR-L23; first compound 20 µM): 0.0198; relative viability (ChaGo-K-1; first compound 0.2 µM): 0.209; relative viability (ChaGo-K-1; first compound 0.6325 µM): 0.2; relative viability (ChaGo-K-1; first compound 2 µM): 0.213; relative viability (ChaGo-K-1; first compound 6.325 µM): 0.224; relative viability (ChaGo-K-1; first compound 20 µM): 0.207; relative viability (HARA; first compound 0.2 µM): 0.119; relative viability (HARA; first compound 0.6325 µM): 0.0972; relative viability (HARA; first compound 6.325 µM): 0.112; relative viability (HARA; first compound 20 µM): 0.118; relative viability (HCC-15; first compound 0.2 µM): 0.431; relative viability (HCC-15; first compound 0.6325 µM): 0.363; relative viability (HCC-15; first compound 2 µM): 0.356; relative viability (HCC-15; first compound 6.325 µM): 0.422; relative viability (HCC-15; first compound 20 µM): 0.151; relative viability (HCC-366; first compound 0.2 µM): 0.109; relative viability (HCC-366; first compound 0.6325 µM): 0.107; relative viability (HCC-366; first compound 2 µM): 0.107; relative viability (HCC-366; first compound 6.325 µM): 0.209; relative viability (HCC-366; first compound 20 µM): 0.0297; relative viability (HCC-78; first compound 0.2 µM): 0.47; relative viability (HCC-78; first compound 0.6325 µM): 0.414; relative viability (HCC-78; first compound 6.325 µM): 0.385; relative viability (HCC-78; first compound 20 µM): 0.228; relative viability (LCLC-103H; first compound 0.2 µM): 0.554; relative viability (LCLC-103H; first compound 0.6325 µM): 0.453; relative viability (LCLC-103H; first compound 2 µM): 0.393; relative viability (LCLC-103H; first compound 6.325 µM): 0.419; relative viability (LCLC-103H; first compound 20 µM): 0.161; relative viability (LCLC-97TM1; first compound 0.2 µM): 0.237; relative viability (LCLC-97TM1; first compound 0.6325 µM): 0.239; relative viability (LCLC-97TM1; first compound 2 µM): 0.325; relative viability (LCLC-97TM1; first compound 6.325 µM): 0.204; relative viability (LCLC-97TM1; first compound 20 µM): 0.123; relative viability (LOU-NH91; first compound 0.2 µM): 0.618; relative viability (LOU-NH91; first compound 0.6325 µM): 0.673; relative viability (LOU-NH91; first compound 2 µM): 0.625; relative viability (LOU-NH91; first compound 6.325 µM): 0.715; relative viability (LOU-NH91; first compound 20 µM): 0.427; relative viability (NCI-H1355; first compound 0.2 µM): 0.581; relative viability (NCI-H1355; first compound 0.6325 µM): 0.568; relative viability (NCI-H1355; first compound 2 µM): 0.564; relative viability (NCI-H1355; first compound 6.325 µM): 0.629; relative viability (NCI-H1355; first compound 20 µM): 0.517; relative viability (NCI-H1734; first compound 0.2 µM): 0.294; relative viability (NCI-H1734; first compound 0.6325 µM): 0.265; relative viability (NCI-H1734; first compound 2 µM): 0.233; relative viability (NCI-H1734; first compound 6.325 µM): 0.181; relative viability (NCI-H1734; first compound 20 µM): 0.0526; relative viability (NCI-H2009; first compound 0.2 µM): 0.846; relative viability (NCI-H2009; first compound 0.6325 µM): 0.742; relative viability (NCI-H2009; first compound 2 µM): 0.948; relative viability (NCI-H2009; first compound 6.325 µM): 0.726; relative viability (NCI-H2009; first compound 20 µM): 0.0462; relative viability (NCI-H2126; first compound 0.2 µM): 1.07; relative viability (NCI-H2126; first compound 0.6325 µM): 0.868; relative viability (NCI-H2126; first compound 2 µM): 0.854; relative viability (NCI-H2126; first compound 6.325 µM): 0.898; relative viability (NCI-H2126; first compound 20 µM): 0.807; relative viability (NCI-H441; first compound 0.2 µM): 0.629; relative viability (NCI-H441; first compound 0.6325 µM): 0.667; relative viability (NCI-H441; first compound 2 µM): 0.77; relative viability (NCI-H441; first compound 6.325 µM): 0.743; relative viability (NCI-H441; first compound 20 µM): 0.309; relative viability (NCI-H460; first compound 0.2 µM): 0.443; relative viability (NCI-H460; first compound 0.6325 µM): 0.312; relative viability (NCI-H460; first compound 2 µM): 0.311; relative viability (NCI-H460; first compound 6.325 µM): 0.5; relative viability (NCI-H460; first compound 20 µM): 0.0183; relative viability (NCI-H596; first compound 0.2 µM): 0.96; relative viability (NCI-H596; first compound 0.6325 µM): 0.803; relative viability (NCI-H596; first compound 2 µM): 0.869; relative viability (NCI-H596; first compound 6.325 µM): 1.02; relative viability (NCI-H596; first compound 20 µM): 0.102; relative viability (NCI-H647; first compound 0.2 µM): 0.615; relative viability (NCI-H647; first compound 0.6325 µM): 0.324; relative viability (NCI-H647; first compound 2 µM): 0.263; relative viability (NCI-H647; first compound 6.325 µM): 0.543; relative viability (NCI-H647; first compound 20 µM): 0.0988; relative viability (NCI-H650; first compound 0.2 µM): 0.91; relative viability (NCI-H650; first compound 2 µM): 0.639; relative viability (NCI-H650; first compound 6.325 µM): 0.749; relative viability (NCI-H650; first compound 20 µM): 0.306; relative viability (PC-14; first compound 0.2 µM): 0.629; relative viability (PC-14; first compound 0.6325 µM): 0.55; relative viability (PC-14; first compound 2 µM): 0.519; relative viability (PC-14; first compound 6.325 µM): 0.714; relative viability (PC-14; first compound 20 µM): 0.386; relative viability (SW 900; first compound 0.2 µM): 0.784; relative viability (SW 900; first compound 0.6325 µM): 0.465; relative viability (SW 900; first compound 2 µM): 0.524; relative viability (SW 900; first compound 6.325 µM): 0.388; relative viability (SW 900; first compound 20 µM): 0.084
